Experimental data reported in ChEMBL document CHEMBL4017477, “Synthesis and evaluation of 4,6-disubstituted pyrimidines as CNS penetrant pan-muscarinic antagonists with a novel chemotype” (Bioorg Med Chem Lett, 2017).

Key:
[1] = target: T1, Muscarinic acetylcholine receptor M4 (Homo sapiens, UniProt P08173); experiment: Antagonist activity at recombinant human M4 receptor expressed in CHO cells co-expressing Gqi5 by calcium mobilization assay; assay type: functional, cell-based
T1 sequence (P08173 whole entry): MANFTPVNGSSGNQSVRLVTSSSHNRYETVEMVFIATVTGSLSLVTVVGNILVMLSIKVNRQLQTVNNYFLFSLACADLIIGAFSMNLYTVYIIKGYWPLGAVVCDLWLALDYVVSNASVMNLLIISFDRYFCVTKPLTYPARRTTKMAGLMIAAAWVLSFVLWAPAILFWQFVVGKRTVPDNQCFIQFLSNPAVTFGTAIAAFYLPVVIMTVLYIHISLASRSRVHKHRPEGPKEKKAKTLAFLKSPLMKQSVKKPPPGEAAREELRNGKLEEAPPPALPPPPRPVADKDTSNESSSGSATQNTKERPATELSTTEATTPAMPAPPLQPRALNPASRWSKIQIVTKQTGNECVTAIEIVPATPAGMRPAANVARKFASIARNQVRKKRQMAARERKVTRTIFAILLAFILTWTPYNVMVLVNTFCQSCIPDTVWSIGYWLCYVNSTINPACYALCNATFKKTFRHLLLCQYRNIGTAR

[2] = target: T2, Muscarinic acetylcholine receptor M4 (Homo sapiens) (UniProt P08173); experiment: Antagonist activity at recombinant human M4 receptor expressed in CHO cells co-expressing Gqi5 by calcium mobilization assay relative to acetylcholine; assay type: functional, cell-based
T2 sequence (whole entry): T1 sequence (P08173 whole entry)

[3] = target: T3, Muscarinic acetylcholine receptor M5 (Homo sapiens, UniProt P08912); experiment: Antagonist activity at recombinant human M5 receptor expressed in CHO cells co-expressing Gqi5 by calcium mobilization assay; assay type: functional, cell-based
T3 sequence (P08912 whole entry): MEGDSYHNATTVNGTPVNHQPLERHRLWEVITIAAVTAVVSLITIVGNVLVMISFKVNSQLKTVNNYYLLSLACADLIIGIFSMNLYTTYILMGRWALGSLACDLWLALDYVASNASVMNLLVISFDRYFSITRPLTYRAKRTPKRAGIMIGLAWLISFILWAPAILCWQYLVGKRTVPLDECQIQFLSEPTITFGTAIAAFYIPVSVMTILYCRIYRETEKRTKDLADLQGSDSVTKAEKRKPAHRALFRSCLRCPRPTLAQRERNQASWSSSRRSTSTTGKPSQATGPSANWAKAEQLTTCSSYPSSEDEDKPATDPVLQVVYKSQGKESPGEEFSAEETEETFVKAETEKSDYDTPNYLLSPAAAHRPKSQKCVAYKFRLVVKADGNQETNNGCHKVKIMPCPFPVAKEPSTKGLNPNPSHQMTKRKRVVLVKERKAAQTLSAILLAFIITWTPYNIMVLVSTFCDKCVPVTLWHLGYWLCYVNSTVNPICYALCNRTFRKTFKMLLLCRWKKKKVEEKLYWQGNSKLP

[4] = target: T4, Muscarinic acetylcholine receptor M1 (Homo sapiens, UniProt P11229); experiment: Antagonist activity at recombinant human M1 receptor expressed in CHO cells co-expressing Gqi5 by calcium mobilization assay; assay type: functional, cell-based
T4 sequence (P11229 whole entry): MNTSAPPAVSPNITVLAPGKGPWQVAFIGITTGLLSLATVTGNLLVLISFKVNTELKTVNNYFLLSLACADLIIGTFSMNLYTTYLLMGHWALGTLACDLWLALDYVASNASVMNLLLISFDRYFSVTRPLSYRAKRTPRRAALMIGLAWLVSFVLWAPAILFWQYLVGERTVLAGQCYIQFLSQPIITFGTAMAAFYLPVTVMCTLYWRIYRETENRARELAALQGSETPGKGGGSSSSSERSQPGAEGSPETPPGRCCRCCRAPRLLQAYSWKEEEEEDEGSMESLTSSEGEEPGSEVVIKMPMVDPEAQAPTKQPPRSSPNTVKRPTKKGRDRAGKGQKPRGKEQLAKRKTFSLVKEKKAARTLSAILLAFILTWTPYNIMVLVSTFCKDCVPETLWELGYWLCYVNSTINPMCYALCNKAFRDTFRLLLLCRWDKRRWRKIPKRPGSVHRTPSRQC

[5] = target: T5, Muscarinic acetylcholine receptor M2 (Homo sapiens, UniProt P08172); experiment: Antagonist activity at recombinant human M2 receptor expressed in CHO cells co-expressing Gqi5 by calcium mobilization assay; assay type: functional, cell-based
T5 sequence (P08172 whole entry): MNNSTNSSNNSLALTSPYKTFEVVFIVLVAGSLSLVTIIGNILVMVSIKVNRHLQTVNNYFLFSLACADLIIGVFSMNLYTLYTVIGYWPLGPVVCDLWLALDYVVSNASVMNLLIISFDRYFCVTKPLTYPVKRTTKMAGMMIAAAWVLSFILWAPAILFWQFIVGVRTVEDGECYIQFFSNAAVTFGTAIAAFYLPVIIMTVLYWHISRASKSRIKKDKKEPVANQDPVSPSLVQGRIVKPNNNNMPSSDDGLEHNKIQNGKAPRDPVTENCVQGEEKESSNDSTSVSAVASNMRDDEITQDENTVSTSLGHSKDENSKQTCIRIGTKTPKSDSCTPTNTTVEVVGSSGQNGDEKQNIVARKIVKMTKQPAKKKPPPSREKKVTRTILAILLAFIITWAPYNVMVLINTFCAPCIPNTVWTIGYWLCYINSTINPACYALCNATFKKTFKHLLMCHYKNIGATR

[6] = target: T6, Muscarinic acetylcholine receptor M3 (Homo sapiens, UniProt P20309); experiment: Antagonist activity at recombinant human M3 receptor expressed in CHO cells co-expressing Gqi5 by calcium mobilization assay; assay type: functional, cell-based
Target sequence in this assay (P20309 whole entry): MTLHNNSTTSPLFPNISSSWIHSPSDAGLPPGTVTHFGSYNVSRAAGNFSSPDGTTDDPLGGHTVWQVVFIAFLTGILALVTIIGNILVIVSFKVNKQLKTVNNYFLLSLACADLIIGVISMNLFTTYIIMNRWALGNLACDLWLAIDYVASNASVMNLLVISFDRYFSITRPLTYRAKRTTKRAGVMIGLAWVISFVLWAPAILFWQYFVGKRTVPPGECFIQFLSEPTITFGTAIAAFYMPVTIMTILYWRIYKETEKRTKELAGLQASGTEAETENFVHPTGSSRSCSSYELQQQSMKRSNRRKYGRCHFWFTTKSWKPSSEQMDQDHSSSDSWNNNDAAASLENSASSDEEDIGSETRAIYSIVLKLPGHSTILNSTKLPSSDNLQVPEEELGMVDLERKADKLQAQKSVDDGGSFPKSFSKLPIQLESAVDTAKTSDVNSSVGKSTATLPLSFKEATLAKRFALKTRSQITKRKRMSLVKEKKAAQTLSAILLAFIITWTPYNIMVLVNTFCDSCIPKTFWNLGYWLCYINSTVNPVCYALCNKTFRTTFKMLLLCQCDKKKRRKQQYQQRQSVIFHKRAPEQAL

[7] = target: T1, Muscarinic acetylcholine receptor M4; experiment: Displacement of [3H]-NMS from recombinant human M4 receptor expressed in CHO cell membranes
[8] = target: T7, Muscarinic acetylcholine receptor M1 (Homo sapiens) (UniProt P11229); experiment: Antagonist activity at recombinant human M1 receptor expressed in CHO cells co-expressing Gqi5 by calcium mobilization assay relative to acetylcholine; assay type: functional, cell-based
T7 sequence (whole entry): T4 sequence (P11229 whole entry)

[9] = target: T8, Muscarinic acetylcholine receptor M2 (Homo sapiens) (UniProt P08172); experiment: Antagonist activity at recombinant human M2 receptor expressed in CHO cells co-expressing Gqi5 by calcium mobilization assay relative to acetylcholine; assay type: functional, cell-based
T8 sequence (whole entry): T5 sequence (P08172 whole entry)

[10] = target: T6, Muscarinic acetylcholine receptor M3; experiment: Antagonist activity at recombinant human M3 receptor expressed in CHO cells co-expressing Gqi5 by calcium mobilization assay relative to acetylcholine; assay type: functional, cell-based
Target sequence in this assay (P20309 whole entry, looked up): as the sequence (P20309 whole entry) above

[11] = target: T9, Muscarinic acetylcholine receptor M5 (Homo sapiens) (UniProt P08912); experiment: Antagonist activity at recombinant human M5 receptor expressed in CHO cells co-expressing Gqi5 by calcium mobilization assay relative to acetylcholine; assay type: functional, cell-based
T9 sequence (whole entry): T3 sequence (P08912 whole entry)

[12] = Brain to plasma partition coefficient, Kp of the compound in rat; assay type: ADME
[13] = target: T10, Muscarinic acetylcholine receptor M4 (Rattus norvegicus, UniProt P08485); experiment: Antagonist activity at rat M4 receptor by calcium mobilization assay; assay type: functional
T10 sequence (P08485 whole entry): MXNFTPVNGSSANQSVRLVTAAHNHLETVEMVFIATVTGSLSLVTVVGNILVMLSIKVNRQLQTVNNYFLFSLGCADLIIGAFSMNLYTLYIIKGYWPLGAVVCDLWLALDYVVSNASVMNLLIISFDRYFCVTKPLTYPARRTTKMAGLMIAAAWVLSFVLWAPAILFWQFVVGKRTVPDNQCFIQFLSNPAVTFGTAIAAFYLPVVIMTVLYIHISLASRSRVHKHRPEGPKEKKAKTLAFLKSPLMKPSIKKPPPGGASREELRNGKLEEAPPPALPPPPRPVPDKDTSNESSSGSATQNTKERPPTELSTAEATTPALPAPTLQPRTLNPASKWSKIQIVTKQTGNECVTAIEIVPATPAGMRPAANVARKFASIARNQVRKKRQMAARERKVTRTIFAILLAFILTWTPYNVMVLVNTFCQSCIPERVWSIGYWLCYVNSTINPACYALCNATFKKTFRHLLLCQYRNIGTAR

[14] = target: T11, Muscarinic acetylcholine receptor M4 (Rattus norvegicus) (UniProt P08485); experiment: Antagonist activity at rat M4 receptor by calcium mobilization assay relative to acetylcholine; assay type: functional
T11 sequence (whole entry): T10 sequence (P08485 whole entry)

[15] = Ratio of unbound brain to plasma concentration in rat; assay type: ADME; settings: brain
[16] = Clearance in rat at 0.2 mg/kg administered as iv cassette dose; settings: in vivo
[17] = Elimination half life in rat at 0.2 mg/kg administered as iv cassette dose; settings: in vivo, read-out: beta t1/2 (converted)
[18] = Volume of distribution at steady state in rat at 0.2 mg/kg administered as iv cassette dose; settings: in vivo, read-out: Vdss

SMILES	IC50 ([1]; read-out: IC50)	Emin [2]	IC50 ([1]; read-out: pIC50 (converted))	other results
O=C(C1CCN(c2cc(Oc3ccc4c(c3)OCO4)ncn2)CC1)N1CCc2ccccc2C1	510 nM	4.1%	–	–
O=C(C1CCN(c2cc(Oc3ccc(F)cc3F)ncn2)CC1)N1CCc2ccccc2C1	100 nM	3%	–	IC50 [3]: 510 nM; IC50 [4]: 250 nM; IC50 [5]: 330 nM; IC50 [6]: 380 nM; Ki [7]: 10.3 nM; Emin [8]: < 6%; Emin [9]: < 6%; Emin [10]: < 6%; Emin [11]: < 6%
O=C(C1CCN(c2cc(Oc3ccc(F)cc3F)ncn2)CC1)N1CCCc2ccccc2C1	1040 nM	6%	–	–
O=C(C1CCN(c2cc(Oc3c(F)cccc3F)ncn2)CC1)N1CCc2ccccc2C1	–	7%	–	–
O=C(C1CCN(c2cc(Oc3ccc(F)cc3F)ncn2)CC1)N1Cc2ccccc2C1	340 nM	18.4%	324 nM	IC50 [3]: 1130 nM; Kp [12]: 0.67; IC50 ([13]; read-out: IC50): 560 nM; IC50 ([13]; read-out: pIC50 (converted)): 479 nM; Emin [14]: 42.7%; IC50 [4]: 540 nM; IC50 [5]: 520 nM; IC50 [6]: 660 nM; K(p,uu,brain) [15]: 0.87; Emin [8]: 18.2%; Emin [9]: 8.7%; Emin [10]: 2.3%; Emin [11]: 42.6%; clearance [16]: 5.37 mL/min/kg; half-life [17]: 3.7 h; Vd [18]: 1.35 L/kg
O=C(NCc1ccccc1)C1CCN(c2cc(Oc3ccc(F)cc3F)ncn2)CC1	> 10000 nM	–	–	–
COc1ccc2c(c1)CN(C(=O)C1CCN(c3cc(Oc4ccc(F)cc4F)ncn3)CC1)CC2	2470 nM	11.8%	2400 nM	–
O=C(C1CCN(c2cc(Oc3cccc(F)c3F)ncn2)CC1)N1CCc2ccccc2C1	190 nM	3.1%	170 nM	–

Now from value to compound, other results behind:

IC50 ([1]; read-out: IC50)	Emin [2]	IC50 ([1]; read-out: pIC50 (converted))	SMILES	other results
310 nM	3.2%	–	O=C(C1CCN(c2cc(Oc3cccc(F)c3)ncn2)CC1)N1CCc2ccccc2C1	–
–	6.8%	–	O=C(C1CCN(c2cc(Oc3ccc4ccccc4c3)ncn2)CC1)N1CCc2ccccc2C1	–
80 nM	3.1%	–	O=C(C1CCN(c2cc(Oc3cc(F)ccc3F)ncn2)CC1)N1CCc2ccccc2C1	–
580 nM	5.5%	562 nM	COc1ccc2c(c1)CCN(C(=O)C1CCN(c3cc(Oc4ccc(F)cc4F)ncn3)CC1)C2	–
